Columns and labels:
[1] = test system: Human immunodeficiency virus 1; assay: Antiviral activity against NNRTI resistant HIV1 harboring Tyr181Cys mutant infected in human MT4 cells assessed as reduction in virus-induced cytopathic effect measured after 5 days by MTT assay; assay type: functional, organism-based; settings: Human immunodeficiency virus 1, MT4, 120 h
[2] = test system: Human immunodeficiency virus 1; assay: Antiviral activity against NNRTI resistant HIV1 harboring Lys103Asn mutant infected in human MT4 cells assessed as reduction in virus-induced cytopathic effect measured after 5 days by MTT assay; assay type: functional, organism-based; settings: Human immunodeficiency virus 1, MT4, 120 h
[3] = test system: Human immunodeficiency virus 1; assay: Antiviral activity against wild type HIV1 IIIB assessed as viral growth inhibition measured after 5 days by MTT assay; assay type: functional, organism-based; settings: Human immunodeficiency virus 1, IIIB, 120 h
[4] = test system: Human immunodeficiency virus 1; assay: Antiviral activity against NNRTI resistant HIV1 harboring Leu100IIe mutant infected in human MT4 cells assessed as reduction in virus-induced cytopathic effect measured after 5 days by MTT assay; assay type: functional, organism-based; settings: Human immunodeficiency virus 1, MT4, 120 h
[5] = test system: Human immunodeficiency virus 1; assay: Antiviral activity against NNRTI resistant HIV1 harboring Gly190Ala mutant infected in human MT4 cells assessed as reduction in virus-induced cytopathic effect measured after 5 days by MTT assay; assay type: functional, organism-based; settings: Human immunodeficiency virus 1, MT4, 120 h
[6] = test system: Human immunodeficiency virus 1; assay: Antiviral activity against NNRTI resistant HIV1 harboring Val106Ala mutant infected in human MT4 cells assessed as reduction in virus-induced cytopathic effect measured after 5 days by MTT assay; assay type: functional, organism-based; settings: Human immunodeficiency virus 1, MT4, 120 h
[7] = test system: Human immunodeficiency virus 1; assay: Antiviral activity against NNRTI resistant HIV1 LAI infected in human MT4 cells assessed as reduction in virus-induced cytopathic effect measured after 5 days by MTT assay; assay type: functional, organism-based; settings: Human immunodeficiency virus 1, LAI, MT4, 120 h
AN3-CA = assay: Cytotoxicity against human AN3-CA cells assessed as cell growth inhibition; assay type: functional, cell-based
[8] = Cytotoxicity against human MHOC-59 cell assessed as cell growth inhibition; assay type: functional, cell-based
Daudi = assay: Cytotoxicity against human Daudi cells assessed as cell growth inhibition; assay type: functional, cell-based
[9] = Cytotoxicity against human IM-9 cells assessed as cell growth inhibition; assay type: toxicity, cell-based
K562 = assay: cells; settings: Homo sapiens
Description: Cytotoxicity against human K562 cells assessed as cell growth inhibition

HEC-1-A = assay: Cytotoxicity against human HEC-1-A cells assessed as cell growth inhibition; assay type: functional, cell-based
DU-145 = assay: Cytotoxicity against human DU-145 cells assessed as cell growth inhibition; assay type: functional, cell-based
Jurkat = assay: Cytotoxicity against human Jurkat cells assessed as cell growth inhibition; assay type: functional, cell-based
MCF7 [10] = assay: Cytotoxicity against human MCF7 cells assessed as cell growth inhibition; assay type: functional, cell-based
[11] = Cytotoxicity against mouse LL2 cells assessed as cell growth inhibition; assay type: functional, cell-based; settings: Lewis lung carcinoma
[12] = target: 5-hydroxytryptamine receptor 7 (Homo sapiens, UniProt P34969); assay: Displacement of [3H]-5Carboxyamidotryptamine from human 5-HT7R expressed in HEK293 cells by radioligand binding assay; assay type: cell-based
5-hydroxytryptamine receptor 7, sequence (P34969 whole entry): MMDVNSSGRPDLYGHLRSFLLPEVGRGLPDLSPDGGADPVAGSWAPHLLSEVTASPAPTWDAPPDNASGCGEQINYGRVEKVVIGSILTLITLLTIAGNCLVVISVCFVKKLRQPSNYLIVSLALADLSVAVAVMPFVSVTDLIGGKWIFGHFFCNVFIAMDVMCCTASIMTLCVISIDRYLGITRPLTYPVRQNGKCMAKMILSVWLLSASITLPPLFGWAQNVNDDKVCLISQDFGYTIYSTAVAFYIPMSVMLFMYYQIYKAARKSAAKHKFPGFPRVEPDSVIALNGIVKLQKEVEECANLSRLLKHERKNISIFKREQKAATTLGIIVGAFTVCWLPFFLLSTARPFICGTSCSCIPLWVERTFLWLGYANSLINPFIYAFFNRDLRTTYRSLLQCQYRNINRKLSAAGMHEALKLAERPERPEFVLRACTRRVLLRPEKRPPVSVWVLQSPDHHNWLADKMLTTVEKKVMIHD

[13] = target: 1-acyl-sn-glycerol-3-phosphate acyltransferase beta (Homo sapiens, UniProt O15120); assay: Inhibition of LPAAT-beta (unknown origin) expressed in Xenopus laevis oocytes incubated for 3 mins; assay type: cell-based, Oocyte
1-acyl-sn-glycerol-3-phosphate acyltransferase beta, sequence (O15120 whole entry): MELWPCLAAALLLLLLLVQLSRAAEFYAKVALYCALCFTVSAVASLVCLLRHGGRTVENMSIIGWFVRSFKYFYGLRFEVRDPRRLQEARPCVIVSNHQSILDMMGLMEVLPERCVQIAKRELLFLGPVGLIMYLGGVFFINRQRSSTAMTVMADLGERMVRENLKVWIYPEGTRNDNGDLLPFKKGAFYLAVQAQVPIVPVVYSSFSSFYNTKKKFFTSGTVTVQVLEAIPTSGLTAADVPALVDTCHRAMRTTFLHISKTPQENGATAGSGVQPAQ

SK-OV-3 [14] = assay: Cytotoxicity against human SK-OV-3 cells assessed as cell growth inhibition incubated for 96 hrs by WST-8 assay; assay type: functional, cell-based; settings: SK-OV-3, 96 h
HeLa = assay: Cytotoxicity against human HeLa cells assessed as cell growth inhibition incubated for 96 hrs by WST-8 assay; assay type: functional, cell-based
HEK293 = assay: Cytotoxicity against HEK293 cells assessed as cell growth inhibition incubated for 96 hrs by WST-8 assay; assay type: functional, cell-based; settings: Homo sapiens, HEK293, 96 h
MEF = assay: Cytotoxicity against mouse MEF cells assessed as cell growth inhibition incubated for 96 hrs by WST-8 assay; assay type: functional, cell-based
[15] = Cytotoxicity against human HCO cell assessed as cell growth inhibition incubated for 96 hrs by WST-8 assay; assay type: functional, cell-based
[16] = test system: Human immunodeficiency virus 1; assay: Antiviral activity against NNRTI resistant HIV1 harboring Tyr188Leu mutant infected in human MT4 cells assessed as reduction in virus-induced cytopathic effect measured after 5 days by MTT assay; assay type: functional, organism-based; settings: Human immunodeficiency virus 1, MT4, 120 h
[17] = target: T1, Equilibrative nucleoside transporter 1 (Homo sapiens, UniProt Q99808); assay: Inhibition of human ENT1 transfected in nucleoside transporter-deficient pig PK-15 cells assessed as inhibition of [3H]-uridine uptake by liquid scintillation counter analysis; assay type: cell-based
T1 sequence (Q99808 whole entry): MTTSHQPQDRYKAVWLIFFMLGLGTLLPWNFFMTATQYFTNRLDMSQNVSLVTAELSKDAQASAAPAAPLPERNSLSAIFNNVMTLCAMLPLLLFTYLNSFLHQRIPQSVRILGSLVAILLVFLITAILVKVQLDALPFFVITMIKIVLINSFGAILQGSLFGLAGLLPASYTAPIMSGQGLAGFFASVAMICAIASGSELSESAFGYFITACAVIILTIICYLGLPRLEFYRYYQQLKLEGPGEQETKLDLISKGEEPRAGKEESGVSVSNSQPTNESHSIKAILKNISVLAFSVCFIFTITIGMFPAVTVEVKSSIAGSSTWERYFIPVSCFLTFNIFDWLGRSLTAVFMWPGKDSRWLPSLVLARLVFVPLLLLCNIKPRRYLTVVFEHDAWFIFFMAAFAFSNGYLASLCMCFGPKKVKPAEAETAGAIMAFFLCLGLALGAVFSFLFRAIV

[18] = target: T2, Equilibrative nucleoside transporter 2 (Homo sapiens, UniProt Q14542); assay: Inhibition of human ENT2 transfected in nucleoside transporter-deficient pig PK-15 cells assessed as inhibition of [3H]-uridine uptake by liquid scintillation counter analysis; assay type: cell-based
T2 sequence (Q14542 whole entry): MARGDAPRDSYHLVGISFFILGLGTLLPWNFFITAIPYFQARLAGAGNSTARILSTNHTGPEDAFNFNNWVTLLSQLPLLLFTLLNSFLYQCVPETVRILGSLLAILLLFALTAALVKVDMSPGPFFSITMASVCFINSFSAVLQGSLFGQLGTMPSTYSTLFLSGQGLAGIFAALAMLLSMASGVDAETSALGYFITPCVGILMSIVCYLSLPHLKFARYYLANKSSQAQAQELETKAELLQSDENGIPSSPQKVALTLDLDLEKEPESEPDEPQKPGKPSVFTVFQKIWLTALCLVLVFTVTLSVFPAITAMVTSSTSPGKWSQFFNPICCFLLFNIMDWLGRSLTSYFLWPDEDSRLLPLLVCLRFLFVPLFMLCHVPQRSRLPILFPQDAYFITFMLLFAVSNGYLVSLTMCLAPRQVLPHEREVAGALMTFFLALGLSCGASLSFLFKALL

HL-60 = assay: Cytotoxicity against human HL-60 cells assessed as cell growth inhibition; assay type: functional, cell-based
SK-OV-3 [19] = assay: Cytotoxicity against human SK-OV-3 cells assessed as cell growth inhibition; assay type: functional, cell-based
SK-BR-3 = assay: Antiproliferative activity against human SK-BR-3 cells assessed as cell growth inhibition measured after 72 hrs by MTT assay; assay type: functional, cell-based; settings: SK-BR-3, 72 h
MDA-MB-231 = assay: Antiproliferative activity against human MDA-MB-231 cells assessed as cell growth inhibition measured after 72 hrs by MTT assay; assay type: functional, cell-based; settings: MDA-MB-231, 72 h
MCF-10A = assay: Antiproliferative activity against human MCF-10A cells assessed as cell growth inhibition measured after 72 hrs by MTT assay; assay type: functional, cell-based
MCF7 [20] = assay: Antiproliferative activity against human MCF7 cells assessed as cell growth inhibition measured after 72 hrs by MTT assay; assay type: functional, cell-based; settings: MCF7, 72 h
NADPH oxidase 3 = NADPH oxidase 3 (Homo sapiens, UniProt Q9HBY0); assay: Inhibition of human NOX3
NADPH oxidase 3, sequence (Q9HBY0 whole entry): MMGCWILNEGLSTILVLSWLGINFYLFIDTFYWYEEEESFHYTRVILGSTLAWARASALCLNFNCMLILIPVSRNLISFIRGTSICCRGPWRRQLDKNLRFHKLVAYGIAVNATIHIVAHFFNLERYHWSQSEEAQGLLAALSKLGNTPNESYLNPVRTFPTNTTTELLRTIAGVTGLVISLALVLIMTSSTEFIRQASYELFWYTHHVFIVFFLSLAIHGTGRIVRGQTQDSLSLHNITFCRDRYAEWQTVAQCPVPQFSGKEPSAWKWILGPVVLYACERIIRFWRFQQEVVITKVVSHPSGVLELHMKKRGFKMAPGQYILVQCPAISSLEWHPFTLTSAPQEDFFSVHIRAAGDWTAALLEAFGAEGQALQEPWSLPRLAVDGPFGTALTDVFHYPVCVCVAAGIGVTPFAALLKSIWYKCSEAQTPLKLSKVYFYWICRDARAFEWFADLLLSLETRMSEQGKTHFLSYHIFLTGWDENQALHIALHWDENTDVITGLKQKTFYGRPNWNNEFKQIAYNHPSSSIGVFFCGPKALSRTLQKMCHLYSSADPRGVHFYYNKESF

NADPH oxidase 2 = NADPH oxidase 2 (Homo sapiens, UniProt P04839); assay: Inhibition of human NOX2
NADPH oxidase 2, sequence (P04839 whole entry): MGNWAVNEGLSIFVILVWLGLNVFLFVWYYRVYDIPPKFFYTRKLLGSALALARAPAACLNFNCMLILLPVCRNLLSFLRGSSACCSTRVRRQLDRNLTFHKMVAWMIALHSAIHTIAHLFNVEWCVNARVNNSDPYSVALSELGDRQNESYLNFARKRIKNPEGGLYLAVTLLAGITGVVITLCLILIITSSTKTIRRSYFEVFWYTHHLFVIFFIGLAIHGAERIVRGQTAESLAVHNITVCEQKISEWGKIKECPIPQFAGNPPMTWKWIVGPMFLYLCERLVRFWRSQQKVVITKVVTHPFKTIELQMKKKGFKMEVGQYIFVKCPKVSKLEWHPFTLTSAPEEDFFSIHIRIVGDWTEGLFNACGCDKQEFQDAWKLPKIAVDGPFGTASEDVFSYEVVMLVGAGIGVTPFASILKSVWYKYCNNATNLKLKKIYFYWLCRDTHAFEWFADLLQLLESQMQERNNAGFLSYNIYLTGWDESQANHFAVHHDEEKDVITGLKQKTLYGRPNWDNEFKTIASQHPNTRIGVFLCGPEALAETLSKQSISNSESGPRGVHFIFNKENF

NADPH oxidase 1 = NADPH oxidase 1 (Homo sapiens, UniProt Q9Y5S8); assay: Inhibition of human NOX1
NADPH oxidase 1, sequence (Q9Y5S8 whole entry): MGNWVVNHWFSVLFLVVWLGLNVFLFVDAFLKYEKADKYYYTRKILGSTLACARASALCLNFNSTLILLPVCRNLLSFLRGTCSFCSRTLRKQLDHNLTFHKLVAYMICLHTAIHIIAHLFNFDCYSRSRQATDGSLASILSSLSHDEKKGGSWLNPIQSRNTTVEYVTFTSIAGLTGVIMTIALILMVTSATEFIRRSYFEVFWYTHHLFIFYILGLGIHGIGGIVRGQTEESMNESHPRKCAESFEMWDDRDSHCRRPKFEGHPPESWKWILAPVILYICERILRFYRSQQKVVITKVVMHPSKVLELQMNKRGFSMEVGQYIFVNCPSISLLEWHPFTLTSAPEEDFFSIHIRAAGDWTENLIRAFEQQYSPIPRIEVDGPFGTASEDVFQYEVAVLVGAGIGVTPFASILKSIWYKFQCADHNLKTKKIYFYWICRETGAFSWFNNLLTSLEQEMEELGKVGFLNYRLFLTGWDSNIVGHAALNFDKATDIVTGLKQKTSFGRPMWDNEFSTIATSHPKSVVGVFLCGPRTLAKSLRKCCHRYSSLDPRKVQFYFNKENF

N#Cc1ccc(Nc2nc(N)nc(Cc3c(Cl)cccc3Cl)n2)cc1
IC50 [1]: 200 nM | IC50 [2]: 40 nM | IC50 [3]: 2 nM | IC50 [4]: 293 nM | IC50 [5]: 1 nM | IC50 [6]: 26 nM | IC50 [7]: 6.3 nM

Cc1ccc(Cl)cc1-c1nc(N)nc(Nc2ccc(Br)cc2)n1
IC50 (AN3-CA): 37 nM | IC50 [8]: 104 nM | IC50 (Daudi): 70 nM | IC50 [9]: 50 nM | IC50 (K562): 50 nM | IC50 (HEC-1-A): 100 nM | IC50 (DU-145): 70 nM | IC50 (Jurkat): 50 nM | IC50 (MCF7 [10]): 90 nM | IC50 [11]: 75 nM

CCC(Oc1cc(Cl)ccc1Cl)c1nc(N)nc(N2CCN(C)CC2)n1 (configuration not stated)
Ki [12]: 5710 nM

CCc1ccc(Nc2nc(N)nc(-c3oc4ccccc4c3C)n2)cc1
IC50 [13]: 15 nM | IC50 (SK-OV-3 [14]): 79 nM | IC50 (HeLa): 111 nM | IC50 (HEK293): 25 nM | IC50 (MEF): 48 nM | IC50 [15]: 63 nM

Cc1cc(C)c(Cc2nc(N)nc(Nc3ccc(C#N)cc3)n2)c(C)c1
IC50 [1]: 15 nM | IC50 [2]: 3 nM | IC50 [16]: 45 nM | IC50 [4]: 82 nM | IC50 [7]: 0.8 nM

COc1ccc(Nc2nc(N)nc(CN3CCN(c4ccccc4F)CC3)n2)cc1
IC50 [17]: 590 nM | IC50 [18]: 77100 nM

CCOc1ccc(Cl)cc1-c1nc(N)nc(Nc2ccc(Cl)cc2)n1
IC50 (AN3-CA): 33 nM | IC50 [8]: 80 nM | IC50 (Daudi): 10 nM | IC50 (HL-60): 30 nM | IC50 (SK-OV-3 [19]): 32 nM | IC50 [9]: 20 nM | IC50 (K562): 30 nM | IC50 (HEC-1-A): 54 nM | IC50 (DU-145): 30 nM | IC50 (Jurkat): 30 nM | IC50 (MCF7 [10]): 50 nM | IC50 [11]: 20 nM

CCc1c(-c2nc(N)nc(Nc3ccc(C)cc3)n2)oc2ccccc12
IC50 [13]: 8.4 nM | IC50 (SK-OV-3 [14]): 179 nM | IC50 (HeLa): 140 nM | IC50 (HEK293): 51 nM | IC50 (MEF): 62 nM | IC50 [15]: 102 nM

N#Cc1ccc(Nc2nc(N)nc(Cc3c(Cl)ccc4[nH]ccc34)n2)cc1
IC50 [1]: 250 nM | IC50 [2]: 63 nM | IC50 [3]: 3 nM | IC50 [16]: 1000 nM | IC50 [4]: 1000 nM | IC50 [5]: 3 nM | IC50 [6]: 63 nM

CCOc1ccc(Cl)cc1-c1nc(N)nc(Nc2ccc(CO)cc2)n1
IC50 (AN3-CA): 32 nM | IC50 [8]: 25 nM | IC50 (Daudi): 13 nM | IC50 (HL-60): < 12.5 nM | IC50 (SK-OV-3 [19]): 29 nM | IC50 [9]: < 12.5 nM | IC50 (K562): < 12.5 nM | IC50 (HEC-1-A): 41 nM | IC50 (DU-145): 25 nM | IC50 (Jurkat): < 12.5 nM | IC50 (MCF7 [10]): 40 nM | IC50 [11]: 25 nM

COc1cc(-c2nc(N)nc(Nc3ccc(C)cc3)n2)cc(OC)c1OC
IC50 (SK-BR-3): 210 nM | IC50 (MDA-MB-231): 1 nM | IC50 (MCF-10A): > 20000 nM | IC50 (MCF7 [20]): > 20000 nM

COc1cccc(N2CCN(Cc3nc(N)nc(Nc4ccc(C)c(C)c4)n3)CC2)c1
IC50 (NADPH oxidase 3): 1250 nM | IC50 (NADPH oxidase 2): 1250 nM | IC50 (NADPH oxidase 1): > 10000 nM

Cc1cccc(Nc2nc(N)nc(CN3CCN(c4ccc(F)cc4)CC3)n2)c1
IC50 [17]: 2380 nM | IC50 [18]: 570 nM

Reference: ChEMBL document CHEMBL5214932, “A closer look at N2,6-substituted 1,3,5-triazine-2,4-diamines: Advances in synthesis and biological activities” (Eur J Med Chem, 2022)
